The test system of the assay is diabetic male mice of the KK strain. Kind of assay: Hypoglycemic activity (blood glucose lowering in diabetic KK mice). Type of assay: in vivo. Conditions: Mus musculus, 50 mg/kg oral, blood from tail vein after 18 hours free feeding, relative to solvent group, read-out: BGL lowering rate (%). The protocol: The test animals used were diabetic male mice of the KK strain, each having a body weight more than 40 g. Each animal was orally administered 50 mg/kg of a test compound and then allowed to feed freely for 18 hours. At the end of this time, blood was collected from the tail veins without anesthesia. The blood glucose level (BGL) was determined by means of a glucose analyzer (GL-101, manufactured by Mitsubishi Kasei Co.).
The blood glucose lowering rate was calculated by the following equation: Blood glucose lowering rate (%) = [(BGLs - BGLt )/BGLs ] x 100 [formula] where: BGLs is the BGL in the group administered a solvent; and BGLt is the BGL in the group administered a test compound.

Structures are written as SMILES.

With `COc1c(C)c(COc2ccc(CC3SC(=O)NC3=O)cc2)c(OC)c2ccccc12` (centres unmarked) [Example 33], the inhibition in vivo at 50 mg/kg was 28.4%.

Take `COc1c(C)c(C)c(OC)c(CCCOc2ccc(CC3SC(=O)NC3=O)cc2)c1C` (centres unmarked) [Example 10, 5-{4-[3-(2,4,5-trimethyl-3,6-dimethoxyphenyl)propoxy]benzyl}thiazolidine-2,4-dione]: the inhibition in vivo at 50 mg/kg was 46%.

`CC(=O)Oc1c(C)c(C)c(OC(C)=O)c(CCCOc2ccc(CC3SC(=O)NC3=O)cc2)c1C` (centres unmarked) [Example 23]: the inhibition in vivo at 50 mg/kg worked out at 24.4%. `CC1=C(C)C(=O)C(CCC(C)(O)COc2ccc(CC3SC(=O)NC3=O)cc2)=C(C)C1=O` (centres unmarked) [Control 1, 5-{4-[2-Methyl-2-hydroxy-4-(3,5,6-trimethyl-1,4-benzoquinon-2-yl)butoxy]benzyl}thiazolidine-2,4-dione, reference compound]: the inhibition in vivo at 50 mg/kg was -0.5%. In the case of `Cc1c(C)c(O)c(CCC(C)(O)COc2ccc(CC3SC(=O)NC3=O)cc2)c(C)c1O` (centres unmarked) [Control 2, 5-{4-[4-(2,5-Dihydroxy-3,4,6-trimethylphenyl)-2-hydroxy-2-methylbutoxy]benzyl}thiazolidine-2,4-dione, reference compound] it was 10.4%; in that of `CC(=O)Oc1c(C)c(C)c(OC(C)=O)c(CCOc2ccc(CC3SC(=O)NC3=O)cc2)c1C` (centres unmarked) [Example 21], 33.4%. The value for `COc1cc(COc2ccc(CC3SC(=O)NC3=O)cc2)c(OC)c2ccccc12` (centres unmarked) [Example 31] was 32.9%. In the case of `COc1c(C)c(C)c(OC)c(COc2ccc(CC3SC(=O)NC3=O)cc2)c1C` (centres unmarked) [Example 9] it was 28.8%. As to `COc1cc(CCOc2ccc(CC3SC(=O)NC3=O)cc2)c(OC)c2ccccc12` (centres unmarked) [Example 34], the inhibition in vivo at 50 mg/kg is 40%. For the compound `CC(=O)Oc1c(C)c(C)c(OC(C)=O)c(Oc2ccc(CC3SC(=O)NC3=O)cc2)c1C` (centres unmarked) [Example 7, 5-[4-(2,5-Diacetoxy-3,4,6-trimethylphenoxy)benzyl]thiazolidine-2,4-dione], the inhibition in vivo at 50 mg/kg came to 24%.

Consider `COc1c(C)c(CCCOc2ccc(CC3SC(=O)NC3=O)cc2)c(OC)c(OC)c1OC` (centres unmarked) [Example 18], for which the inhibition in vivo at 50 mg/kg was found to be 22%. The value for `COc1c(C)c(CCOc2ccc(CC3SC(=O)NC3=O)cc2)c(OC)c(OC)c1OC` (centres unmarked) [Example 16] was 20.2%.

For the compound `COc1c(C)c(C)c(OC)c(CCCCOc2ccc(CC3SC(=O)NC3=O)cc2)c1C` (centres unmarked) [Example 12], the inhibition in vivo at 50 mg/kg came to 24%. Take `COc1c(C)c(CCCCOc2ccc(CC3SC(=O)NC3=O)cc2)c(OC)c(OC)c1OC` (centres unmarked) [Example 19]: the inhibition in vivo at 50 mg/kg came to 26.6%.

The values are drawn from patent EP0549365A1, “Thiazolidine compounds, their preparation and their therapeutic uses” (Sankyo Company Limited, priority 1991, dated 1993).
